The first assay has as its target recombinant human NK3 receptor (Homo sapiens (Human), UniProt P29371). In words: biochemical. The class given is binding. Conditions: [3H]SR142801, membranes of HEK293 cells transiently expressing recombinant human NK3 receptor; read-out: Data Ki (hNK-3 receptor affinity).
recombinant human NK3 receptor, sequence (P29371 whole entry): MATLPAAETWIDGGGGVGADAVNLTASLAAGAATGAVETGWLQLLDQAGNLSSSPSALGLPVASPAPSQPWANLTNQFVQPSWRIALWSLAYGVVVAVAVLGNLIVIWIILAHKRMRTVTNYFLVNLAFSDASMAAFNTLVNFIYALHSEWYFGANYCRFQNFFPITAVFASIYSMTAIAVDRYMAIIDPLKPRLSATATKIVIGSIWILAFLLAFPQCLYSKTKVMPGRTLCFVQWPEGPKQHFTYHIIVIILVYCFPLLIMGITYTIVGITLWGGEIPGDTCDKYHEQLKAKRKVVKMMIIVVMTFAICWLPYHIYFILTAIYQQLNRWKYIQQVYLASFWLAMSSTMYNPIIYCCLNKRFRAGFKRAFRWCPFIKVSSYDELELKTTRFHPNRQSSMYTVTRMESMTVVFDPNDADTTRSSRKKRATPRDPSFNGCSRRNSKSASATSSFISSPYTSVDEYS
The Ki is the dissociation constant of the complex between target and ligand, obtained from inhibition or displacement. Regarding `CCN(C(=O)Oc1ccc(F)cc1)[C@@H]1CN(C(=O)C2CCN(C(=O)c3ccc(C#N)nc3)CC2)C[C@H]1c1ccc(Cl)c(F)c1` [Example 79, {(3S,4R)-4-(4-Chloro-3-fluoro-phenyl)-1-[1-(6-cyano-pyridine-3-carbonyl)-piperidine-4-carbonyl]-pyrrolidin-3-yl}-ethyl-carbamic acid 4-fluoro-phenyl ester], the inhibitory constant (Ki) came to 8 nM.

Consider `CCN(C(=O)Oc1ccc(F)cc1)[C@@H]1CN(C(=O)C2CCN(C(C)=O)CC2)C[C@H]1c1ccc(Cl)c(F)c1` [Example 80, [(3S,4R)-1-(1-Acetyl-piperidine-4-carbonyl)-4-(4-chloro-3-fluoro-phenyl)-pyrrolidin-3-yl]-ethyl-carbamic acid 4-fluoro-phenyl ester], for which the Ki was determined as 2 nM.

As to `CCN(C(=O)Oc1ccc(F)cc1)[C@@H]1CN(C(=O)C2CCN(S(C)(=O)=O)CC2)C[C@H]1c1ccc(Cl)c(F)c1` [Example 81, [(3S,4R)-4-(4-Chloro-3-fluoro-phenyl)-1-(1-methanesulfonyl-piperidine-4-carbonyl)-pyrrolidin-3-yl]-ethyl-carbamic acid 4-fluoro-phenyl ester], the inhibition constant (Ki) was 29 nM.

Regarding `CCN(C(=O)Oc1ccc(F)cc1)[C@@H]1CN(C(=O)C2CCN(C(C)=O)CC2)C[C@H]1c1ccc(Cl)cc1` [Example 82, [(3S,4R)-1-(1-Acetyl-piperidine-4-carbonyl)-4-(4-chloro-phenyl)-pyrrolidin-3-yl]-ethyl-carbamic acid 4-fluoro-phenyl ester], the inhibitory constant (Ki) stood at 8.2 nM.

Regarding `CCN(C(=O)Oc1ccc(F)cc1)[C@@H]1CN(C(=O)C2CCN(c3ccc(C(C)(C)O)cn3)CC2)C[C@H]1c1ccc(Cl)c(F)c1` [Example 83, {(3S,4R)-4-(4-Chloro-3-fluoro-phenyl)-1-[5′-(1-hydroxy-1-methyl-ethyl)-3,4,5,6-tetrahydro-2H-[1,2′]bipyridinyl-4-carbonyl]-pyrrolidin-3-yl}-ethyl-carbamic acid 4-fluoro-phenyl ester], the inhibitory constant (Ki) was 3.8 nM.

For the compound `CCN(C(=O)Oc1ccccc1F)[C@@H]1CN(C(=O)C2CCN(C(=O)C3(C)COC3)CC2)C[C@H]1c1ccc(Cl)cc1` [Example 84, {(3S,4R)-4-(4-Chloro-phenyl)-1-[1-(3-methyl-oxetane-3-carbonyl)-piperidine-4-carbonyl]-pyrrolidin-3-yl}-ethyl-carbamic acid 2-fluoro-phenyl ester], the Ki is 29.8 nM.

Turning to `CCN(C(=O)Oc1ccccc1F)[C@@H]1CN(C(=O)C2CCN(C(=O)C3(C#N)CC3)CC2)C[C@H]1c1ccc(Cl)cc1` [Example 85, {(3S,4R)-4-(4-Chloro-phenyl)-1-[1-(1-cyano-cyclopropanecarbonyl)-piperidine-4-carbonyl]-pyrrolidin-3-yl}-ethyl-carbamic acid 2-fluoro-phenyl ester], the Ki was 23.3 nM.

With `CCN(C(=O)Oc1ccc(F)cc1)[C@@H]1CN(C(=O)C2CCN(C(=O)C3CCC3)CC2)C[C@H]1c1ccc(Cl)cc1` [Example 87, [(3S,4R)-4-(4-Chloro-phenyl)-1-(1-cyclobutanecarbonyl-piperidine-4-carbonyl)-pyrrolidin-3-yl]-ethyl-carbamic acid 4-fluoro-phenyl ester], the inhibition constant Ki turned out to be 2.1 nM.

In the case of `CCN(C(=O)Oc1ccc(F)cc1)[C@@H]1CN(C(=O)C2CCN(C(=O)C3(C)COC3)CC2)C[C@H]1c1ccc(Cl)cc1` [Example 88, {(3S,4R)-4-(4-Chloro-phenyl)-1-[1-(3-methyl-oxetane-3-carbonyl)-piperidine-4-carbonyl]-pyrrolidin-3-yl}-ethyl-carbamic acid 4-fluoro-phenyl ester], the Ki is 5.6 nM.

Turning to `CCN(C(=O)Oc1ccc(F)cc1)[C@@H]1CN(C(=O)C2CCN(C(=O)C3CC(F)(F)C3)CC2)C[C@H]1c1ccc(Cl)cc1` [Example 90, {(3S,4R)-4-(4-Chloro-phenyl)-1-[1-(3,3-difluoro-cyclobutanecarbonyl)-piperidine-4-carbonyl]-pyrrolidin-3-yl}-ethyl-carbamic acid 4-fluoro-phenyl ester], the inhibition constant Ki came to 2.4 nM.

For the compound `CCN(C(=O)Oc1ccc(F)cc1)[C@@H]1CN(C(=O)C2CCN(C(=O)C3CC(OC)C3)CC2)C[C@H]1c1ccc(Cl)cc1` (stereo partly drawn) [Example 91, {(3S,4R)-4-(4-Chloro-phenyl)-1-[1-(3-methoxy-cyclobutanecarbonyl)-piperidine-4-carbonyl]-pyrrolidin-3-yl}-ethyl-carbamic acid 4-fluoro-phenyl ester], the Ki was 6.5 nM.

With `CCN(C(=O)Oc1ccc(F)cc1)[C@@H]1CN(C(=O)C2CCN(C(=O)C3(C(F)(F)F)CCC3)CC2)C[C@H]1c1ccc(Cl)cc1` [Example 92, {(3S,4R)-4-(4-Chloro-phenyl)-1-[1-(1-trifluoromethyl-cyclobutanecarbonyl)-piperidine-4-carbonyl]-pyrrolidin-3-yl}-ethyl-carbamic acid 4-fluoro-phenyl ester], the inhibitory constant (Ki) came out at 6.6 nM.

As to `CCN(C(=O)Oc1ccc(F)cc1)[C@@H]1CN(C(=O)C2CCN(C(=O)CC#N)CC2)C[C@H]1c1ccc(Cl)cc1` [Example 93, {(3S,4R)-4-(4-Chloro-phenyl)-1-[1-(2-cyano-acetyl)-piperidine-4-carbonyl]-pyrrolidin-3-yl}-ethyl-carbamic acid 4-fluoro-phenyl ester], the Ki turned out to be 7.1 nM.

Turning to `CCN(C(=O)Oc1ccc(F)cc1)[C@@H]1CN(C(=O)C2CCN(C(=O)C3(C#N)CC3)CC2)C[C@H]1c1ccc(Cl)cc1` [Example 94, {(3S,4R)-4-(4-Chloro-phenyl)-1-[1-(1-cyano-cyclopropanecarbonyl)-piperidine-4-carbonyl]-pyrrolidin-3-yl}-ethyl-carbamic acid 4-fluoro-phenyl ester], the inhibition constant (Ki) stood at 7.8 nM.

As for `CCN(C(=O)Oc1ccc(F)cc1)[C@@H]1CN(C(=O)C2CCN(C(=O)C3(C(F)(F)F)CC3)CC2)C[C@H]1c1ccc(Cl)cc1` [Example 95, {(3S,4R)-4-(4-Chloro-phenyl)-1-[1-(1-trifluoromethyl-cyclopropanecarbonyl)-piperidine-4-carbonyl]-pyrrolidin-3-yl}-ethyl-carbamic acid 4-fluoro-phenyl ester], the inhibition constant (Ki) is 6.1 nM.

For the compound `CCN(C(=O)Oc1ccc(F)cc1)[C@@H]1CN(C(=O)C2CCN(C(=O)C3CC3(F)F)CC2)C[C@H]1c1ccc(Cl)cc1` (stereo partly drawn) [Example 96, {(3S,4R)-4-(4-Chloro-phenyl)-1-[1-(2,2-difluoro-cyclopropanecarbonyl)-piperidine-4-carbonyl]-pyrrolidin-3-yl}-ethyl-carbamic acid 4-fluoro-phenyl ester], the inhibitory constant (Ki) amounted to 3.4 nM.

Regarding `CCN(C(=O)Oc1ccc(F)cc1)[C@@H]1CN(C(=O)C2CCN(C(=O)C3CCOCC3)CC2)C[C@H]1c1ccc(Cl)cc1` [Example 97, {(3S,4R)-4-(4-Chloro-phenyl)-1-[1-(tetrahydro-pyran-4-carbonyl)-piperidine-4-carbonyl]-pyrrolidin-3-yl}-ethyl-carbamic acid 4-fluoro-phenyl ester], the inhibitory constant (Ki) came to 4.4 nM.

In the case of `CCN(C(=O)Oc1ccc(F)cc1)[C@@H]1CN(C(=O)C2CCN(C(=O)C3CCOC(C)(C)C3)CC2)C[C@H]1c1ccc(Cl)cc1` (stereo partly drawn) [Example 98, {(3S,4R)-4-(4-Chloro-phenyl)-1-[1-(2,2-dimethyl-tetrahydro-pyran-4-carbonyl)-piperidine-4-carbonyl]-pyrrolidin-3-yl}-ethyl-carbamic acid 4-fluoro-phenyl ester], the inhibition constant Ki was determined as 4.7 nM.

Consider `CCN(C(=O)Oc1ccc(F)cc1)[C@@H]1CN(C(=O)C2CCN(C(=O)C3CC3(C)C)CC2)C[C@H]1c1ccc(Cl)cc1` (stereo partly drawn) [Example 100, {(3S,4R)-4-(4-Chloro-phenyl)-1-[1-(2,2-dimethyl-cyclopropanecarbonyl)-piperidine-4-carbonyl]-pyrrolidin-3-yl}-ethyl-carbamic acid 4-fluoro-phenyl ester], for which the Ki is 3.6 nM.

For `CCN(C(=O)Oc1ccc(F)cc1)[C@@H]1CN(C(=O)C2CCN(C(=O)c3ccc(C(F)(F)F)cn3)CC2)C[C@H]1c1ccc(Cl)cc1` [Example 101, {(3S,4R)-4-(4-Chloro-phenyl)-1-[1-(5-trifluoromethyl-pyridine-2-carbonyl)-piperidine-4-carbonyl]-pyrrolidin-3-yl}-ethyl-carbamic acid 4-fluoro-phenyl ester], the Ki amounted to 42.5 nM.

On to `CCN(C(=O)Oc1ccc(F)cc1)[C@@H]1CN(C(=O)C2CCN(C(=O)c3ccc(F)cn3)CC2)C[C@H]1c1ccc(Cl)cc1` [Example 102, {(3S,4R)-4-(4-Chloro-phenyl)-1-[1-(5-fluoro-pyridine-2-carbonyl)-piperidine-4-carbonyl]-pyrrolidin-3-yl}-ethyl-carbamic acid 4-fluoro-phenyl ester], for which the Ki was 8.2 nM.

Still in this assay, the particulars now being: read-out: Data Ki (hNK-3 receptor affinity).
`CCN(C(=O)Oc1ccccc1F)[C@@H]1CN(C(=O)C2CCN(C(=O)c3ccc(C(F)(F)F)cn3)CC2)C[C@H]1c1ccc(Cl)cc1` [Example 86, {(3S,4R)-4-(4-Chloro-phenyl)-1-[1-(5-trifluoromethyl-pyridine-2-carbonyl)-piperidine-4-carbonyl]-pyrrolidin-3-yl}-ethyl-carbamic acid 2-fluoro-phenyl ester]: the inhibition constant Ki was found to be 70.7 nM.

For `CCN(C(=O)Oc1ccc(F)cc1)[C@@H]1CN(C(=O)C2CCN(C(=O)C3CC(F)C3)CC2)C[C@H]1c1ccc(Cl)cc1` (stereo partly drawn) [Example 89, {(3S,4R)-4-(4-Chloro-phenyl)-1-[1-(3-fluoro-cyclobutanecarbonyl)-piperidine-4-carbonyl]-pyrrolidin-3-yl}-ethyl-carbamic acid 4-fluoro-phenyl ester], the inhibitory constant (Ki) was 3.3 nM.

For `CCN(C(=O)Oc1ccc(F)cc1)[C@@H]1CN(C(=O)C2CCN(C(=O)C3(COC)CC3)CC2)C[C@H]1c1ccc(Cl)cc1` [Example 99, {(3S,4R)-4-(4-Chloro-phenyl)-1-[1-(1-methoxymethyl-cyclopropanecarbonyl)-piperidine-4-carbonyl]-pyrrolidin-3-yl}-ethyl-carbamic acid 4-fluoro-phenyl ester], the Ki was found to be 4.7 nM.

As for `CCN(C(=O)Oc1ccc(F)cc1)[C@@H]1CN(C(=O)C2CCN(C(=O)C3CCC(=O)NC3)CC2)C[C@H]1c1ccc(Cl)cc1` (stereo partly drawn) [Example 103, {(3S,4R)-4-(4-Chloro-phenyl)-1-[1-(6-oxo-piperidine-3-carbonyl)-piperidine-4-carbonyl]-pyrrolidin-3-yl}-ethyl-carbamic acid 4-fluoro-phenyl ester], the inhibition constant (Ki) is 32.6 nM.

Source of the values: patent publication US9346786B2, “Pyrrolidine compounds” (Hoffmann-La Roche Inc., priority 2009, dated 2016).
